{
  "source": "patent US20160067232A1",
  "about": "“METHODS FOR TREATING A STROKE-RELATED SENSORIMOTOR IMPAIRMENT USING AMINOPYRIDINES” (Acorda Therapeutics, Inc., priority 2011, published 2016)",
  "key": {"[1]": {"tested_on": "potassium channels", "settings": "cited from earlier work"}, "[2]": {"tested_on": "rats with middle cerebral artery occlusion (MCAO)", "experiment": "Forelimb placing test, MCAO rats, dose escalation study (Example 17)", "format": "in vivo, Sprague Dawley rat", "settings": "for Forelimb placing compared to vehicle: p<0.001", "description": "The limb placing tests were divided into forelimb and hindlimb tests. For the forelimb-placing test, the examiner held the rat close to a tabletop and scored the rat's ability to place the forelimb on the tabletop in response to whisker, visual, tactile, or proprioceptive stimulation. Similarly, for the hindlimb placing test, the examiner assessed the rat's ability to place the hindlimb on the tabletop in response to tactile and proprioceptive stimulation. Together, these tests reflect function and recovery in the sensorimotor systems (De Ryck et al., Brain Res 1992; 573:44-60). Separate sub-scores were obtained for each mode of sensory input and added to give total scores (for the forelimb placing test: 0=normal, 12=maximally impaired; for the hindlimb placing test: 0=normal; 6=maximally impaired). Scores were given in half-point increments (see below). Typically, there is a slow and steady recovery of limb placing behavior during the first month after stroke.\nForelimb placing test (0-12): • whisker placing (0-2); • visual placing (forward (0-2), sideways (0-2)) • tactile placing (dorsal (0-2), lateral (0-2)) • proprioceptive placing (0-2).\nFor each subtest, animals are scored as followed: • 0.0=immediate response • 0.5=response within 2 seconds • 1.0=response of 2-3 seconds • 1.5=response of >3 seconds • 2.0=no response\n4-AP was evaluated for its ability to promote functional sensorimotor improvement following ischemic stroke in rats with stable motor deficits at times remote from their ischemic events. The animal model of ischemic stroke, i.e., the MCAO model, used in this example is the same as the animal model described in Example 2.\nIn the MCAO model recovery begins to plateau by 4 weeks after MCAO, at which time there are still measurable deficits in sensorimotor function. However, 4 weeks after MCAO there may still be slow continued endogenous recovery.\n4-aminopyridine was dissolved in water for injection (WFI, Cellgro) and sterile filtered. […]"}},
  "note": "Read-outs that look alike come from different tables or passages of the source.",
  "data": [
    {"compound": "Nc1ccncc1", "note": "[4-aminopyridine]", "values": [
      {"measurement": "potassium channel blocking activity", "setting": "[1]; at high concentration (millimolar concentrations)", "value": "broad-spectrum blocker of potassium channels"},
      {"measurement": "potassium channel blocking activity", "setting": "[1]; at plasma concentrations obtained in clinical studies (<1 microM)", "value": "selective for certain types of these channels"},
      {"measurement": "Forelimb placing compared to vehicle", "setting": "[2]; 0.5 mg/kg b.i.d. p.o., Day 59, treatment started Day 56 after MCAO", "value": "significantly improved in forelimb placing"},
      {"measurement": "Forelimb placing compared to vehicle", "setting": "[2]; 1 mg/kg b.i.d. p.o., Day 62", "value": "measureable improvement"},
      {"measurement": "Forelimb function compared to vehicle", "setting": "[2]; 2 mg/kg b.i.d. p.o., Day 65, p<0.0001", "value": "significant improvements"}
    ]}
  ]
}
